According to patent US10464925B2, “Methods to induce targeted protein degradation through bifunctional molecules” (Dana-Farber Cancer Institute, Inc., priority 2015, dated 2019):
Like-named read-outs stand apart in the source and are kept apart here. One block for each compound: values may come before it.

Key:
[1] = test system: IKZF1 adjoined to nanoluciferase (Nluc); assay: IKZF1 Dual Luciferase Assay; assay type: cell-based; design: Nluc/Fluc IKZF1 Max Degradation: unit: %; details: 293 FT cells, 4 hours; for IC50: read-out: Nluc/Fluc IKZF1 IC50
CRBN-DDB1 = target: T1, CRBN-DDB1 (Homo sapiens, UniProt Q96SW2); assay: CRBN-DDB1 Ligand-Displacement AlphaScreen Assay (thalidomide competition); assay type: binding;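 further: streptavidin donor and nickel chelate acceptor bead proximity signal after 30 min incubation, normalized with no-protein background as 0% and DMSO wells as 100% activity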
T1 construct: 6xHis (given for the complex); made in house; host or cells: Sf9 cells (Invitrogen), pFastBac

[2] = target: T2, BRD4 adjoined to nanoluciferase (Nluc) (Homo sapiens, UniProt O60885+Q96SW2); assay: BRD4 Dual Luciferase Assay; assay type: cell-based; details: for Emax: BRD4 remaining at Emax, read-out: BRD4− Emax (percent remaining);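 on all read-outs here: transduced reporter cells exposed to compound for 4 h, then Nluc and Fluc luminescence read, each normalized to DMSO controls and expressed as Nluc/Fluc ratio per well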
T2 construct: expressed in transfected cells

CRBN = target: T3, CRBN (Homo sapiens, UniProt Q96SW2); assay: Intracellular CRBN Engagement Assay (dFKBP7 rescue); assay type: cell-based; details: competition with 80 nM dFKBP7, 3 hours; read-out: FKBP7 rescue (EC50)
T3 construct: endogenous in cells

BRD4 [3] = target: T4, BRD4 (Homo sapiens, UniProt O60885); assay: BRD4 AlphaScreen; assay type: binding; design: […]; His tag (inferred from capture on Ni-coated acceptor beads)
797 = assay: Cell viability, 797 cells (Table 4); assay type: cell-based; details: read-out: IC50 (nM) 797
BRDT = BRDT (Homo sapiens, UniProt Q58F21); assay: BRDT IC50 (Table 4); assay type: binding; details: read-out: IC50 (nM) BRDT
BRD4 [4] = target: T4, BRD4; assay: BRD4 Cell Western (BRD4 levels in 293T cells, LiCOR); assay type: cell-based; design: BRD4 levels in the cells after the dBET treatment; endogenous in cells; details: HEK-293T; read-out: BRD4 max degradation(%) Cell Western
DND41 = assay: Cell viability, ATPlite 48 hours, DND41; assay type: cell-based; details: DND41 cells
MOLT4 = assay: Cell viability, ATPlite 48 hours, MOLT4; assay type: cell-based; details: Homo sapiens, MOLT-4; MOLT4 cells
NGP = assay: Cell viability, ATPlite 72 hours; assay type: cell-based; details: NGP cells, Table 4; read-out: IC50 (nM) NGP
CUTL1 = assay: Cell viability, ATPlite 48 hours, CUTLL1; assay type: cell-based; details: CUTL1 cells
[5] = 4 hours, read-out: max degradation (dual luc)
[6] = read-out: BRD4 max degradation(%) Dual Luciferase
[7] = biotin-thalidomide competition, read-out: THAL ALPHA (IC50)

IC50 (CRBN-DDB1; read-out: CRBN alpha IC50): 0.164 µM
SMILES: CCN(CC)c1cccc2c1C(=O)N(C1CCC(=O)NC1=O)C2=O [Compound D-21, 4-(diethylamino)-2-(2,6-dioxopiperidin-3-yl)isoindoline-1,3-dione]
Nluc/Fluc IKZF1 Max Degradation [1]: 17.98

IC50 [1]: > 50 µM
IC50 (CRBN-DDB1; read-out: CRBN alpha IC50): 0.2 µM
SMILES: CCN(CC)c1ccc2c(c1)C(=O)N(C1CCC(=O)NC1=O)C2=O [Compound D-27, 5-(diethylamino)-2-(2,6-dioxopiperidin-3-yl)isoindoline-1,3-dione]

IC50 (CRBN-DDB1; read-out: CRBN alpha IC50): 14.5 µM
SMILES: Cc1nc2ccccc2c(=O)n1C1CCC(=O)NC1=O [Compound D-9, 3-(2-methyl-4-oxoquinazolin-3(4H)-yl)piperidine-2,6-dione]
Nluc/Fluc IKZF1 Max Degradation [1]: 67.23

IC50 (CRBN-DDB1; read-out: CRBN alpha IC50): 0.667 µM
SMILES: CC(=O)Nc1cccc2c1C(=O)N(C1CCC(=O)NC1=O)C2=O [Compound D-3, N-(2-(2,6-dioxopiperidin-3-yl)-1,3-dioxoisoindolin-4-yl)acetamide]
Nluc/Fluc IKZF1 Max Degradation [1]: 38.24

IC50 [1]: > 50 µM
IC50 (CRBN-DDB1; read-out: CRBN alpha IC50): 0.113 µM
SMILES: CC(C)Nc1ccc2c(c1)C(=O)N(C1CCC(=O)NC1=O)C2=O [Compound D-26, 2-(2,6-dioxopiperidin-3-yl)-5-(isopropylamino)isoindoline-1,3-dione]

IC50 [1]: > 50 µM
IC50 (CRBN-DDB1; read-out: CRBN alpha IC50): 0.619 µM
SMILES: O=C1CCC(N2C(=O)c3ccc(C(=O)NCc4ccccc4)cc3C2=O)C(=O)N1 [Compound D-15, N-benzyl-2-(2,6-dioxopiperidin-3-yl)-1,3-dioxoisoindoline-5-carboxamide]

IC50 [1]: > 50 µM
IC50 (CRBN-DDB1; read-out: CRBN alpha IC50): 126 µM
SMILES: Cc1nc2ccccc2c(=O)n1C1CC(=O)NC1=O [Compound D-11, 3-(2-methyl-4-oxoquinazolin-3(4H)-yl)pyrrolidine-2,5-dione]

IC50 [1]: > 50 µM
IC50 (CRBN-DDB1; read-out: CRBN alpha IC50): 0.266 µM
SMILES: CC(=O)Nc1ccc2c(c1)C(=O)N(C1CCC(=O)NC1=O)C2=O [Compound D-5, N-(2-(2,6-dioxopiperidin-3-yl)-1,3-dioxoisoindolin-5-yl)acetamide]

IC50 [1]: > 50 µM
IC50 (CRBN-DDB1; read-out: CRBN alpha IC50): 0.0589 µM
SMILES: O=C1CCC(N2C(=O)c3ccc(NCc4ccccc4)cc3C2=O)C(=O)N1 [Compound D-25, 5-(benzylamino)-2-(2,6-dioxopiperidin-3-yl)isoindoline-1,3-dione]

Continued, compound first:

SMILES: Cc1c(CC#N)sc2c1C(c1ccc(Cl)cc1)=N[C@@H](CC(=O)NCCCCNC(=O)COc1cccc3c1C(=O)N(C1CCC(=O)NC1=O)C3=O)c1nnc(C)n1-2 (some centres unmarked) [dBET19]
Dmax [2, 5]: -1.3%
Emax [2]: 93.3%
Dmax [2, 6]: > 5%
EC50 (CRBN): 4330 µM
IC50 (BRD4 [3]; read-out: BRD4 Alpha (IC50)): 212 nM
IC50 (BRD4 [3]; read-out: IC50 (nM) BRD4): 212 nM
IC50 797: > 20000 nM
IC50 (BRDT): 1130 nM
IC50 (CRBN-DDB1; [7]): 0.00362 µM

SMILES: Cc1sc2c(c1C)C(c1ccc(Cl)cc1)=N[C@@H](CC(=O)NCCCCCCNC(=O)COc1cccc3c1C(=O)N(C1CCC(=O)NC1=O)C3=O)c1nnc(C)n1-2 (some centres unmarked) [dBET5]
Dmax [2, 5]: 53%
Emax [2]: 44.7%
Dmax [2, 6]: 53%
IC50 (BRDT): 110 nM
Dmax (BRD4 [4]): 66%

SMILES: Cc1noc(C)c1-c1ccc(-c2nc3cnccn3c2NCC(=O)NCCCCNC(=O)COc2cccc3c2C(=O)N(C2CCC(=O)NC2=O)C3=O)cc1 (centres unmarked) [dBET13]
EC50 (CRBN): 220 µM
IC50 (BRD4 [3]; read-out: BRD4 Alpha (IC50)): 6930 nM
IC50 (BRD4 [3]; read-out: IC50 (nM) BRD4): 6930 nM
IC50 (CRBN-DDB1; [7]): 0.0107 µM

SMILES: CC[C@@H]1C(=O)N(C)c2cnc(Nc3ccc(C(=O)NCCCCCCCCNC(=O)COc4cccc5c4C(=O)N(C4CCC(=O)NC4=O)C5=O)cc3OC)nc2N1C1CCCC1 (some centres unmarked) [dBET8]
IC50 (DND41): 47.2 nM
IC50 (MOLT4): 88.5 nM
IC50 (NGP): 153 nM
IC50 (BRDT): 820 nM
IC50 (CUTL1): 42 nM

SMILES: Cc1sc2c(c1C)C(c1ccc(Cl)cc1)=N[C@@H](CC(=O)NCCNC(=O)COc1cccc3c1C(=O)N(C1CCC(=O)NC1=O)C3=O)c1nnc(C)n1-2 (some centres unmarked) [dBET3]
Conc@Emax [2]: 0.5 µM
Dmax [2, 5]: 12.7%
Emax [2]: 84%
Dmax [2, 6]: 13%
IC50 (BRDT): 88 nM
Dmax (BRD4 [4]): 31.6%

SMILES: Cc1cnc(Nc2ccc(N3CCN(C(=O)CCC(=O)NCCCOCCOCCOCCCNC(=O)COc4cccc5c4C(=O)N(C4CCC(=O)NC4=O)C5=O)CC3)cc2)nc1Nc1cccc(S(=O)(=O)NC(C)(C)C)c1 (centres unmarked) [dBET34]
Dmax [2, 5]: 24%
Dmax [2, 6]: 24%
IC50 (BRD4 [3]; read-out: BRD4 Alpha (IC50)): 1540 nM
IC50 (BRD4 [3]; read-out: IC50 (nM) BRD4): 1540 nM
IC50 797: 3920 nM

SMILES: Cc1nc2cccc(N)c2c(=O)n1C1CCC(=O)NC1=O [Compound D-17, 3-(5-amino-2-methyl-4-oxoquinazolin-3(4H)-yl)piperidine-2,6-dione]
Nluc/Fluc IKZF1 Max Degradation [1]: 67.59
